Data on one sequence can be found in paper PMC8571378, “Reversion analysis reveals the in vivo immunogenicity of a poorly MHC I-binding cancer neoepitope” (Nature Communications, 2021).

Test [1] has as its system Meth A. Nature of the test: Tumor rejection (immunization-challenge) assay; tumor growth AUC and tumor rejection score (TRS). The test is classed as in vivo, BALB/cJ mice. The procedure:
Each line represents tumor growth in a single mouse (n = 5 mice per group). AUC for each group is plotted in the panel on the right. Data are presented as mean ± SD. P values were calculated using 1-way ANOVA test adjusted for multiple comparisons (Tukey’s multiple comparison test). c Several truncated versions of the 18-mer Ccdc85c^MUT peptide were tested in tumor rejection assay. BALB/cJ mice were immunized and tumor challenged. Each line represents tumor growth in a single mouse. Although mice were immunized with individual peptides, the data for multiple peptides are grouped into one with the composition of the peptides shown on the right. The tumor rejection data for individual peptides are shown in Supplementary Fig. 1. Tumor rejection score (TRS) for each neoepitope is shown in the yellow box, where five represents a complete tumor protection and zero means no tumor rejection. d On the left panel, total Area Under the Curve (AUC) scores for each group in B are plotted. […] Error bars represent standard deviation (SD). […] P values were calculated using 1-way ANOVA test adjusted for multiple comparisons. […] Matched peak lists for the “heavy” and “light” ions were extracted and monitored, while only single charge y ions were plotted. See Methods for details. f Predicted (by NetMHC4.0) and measured IC50 values of the binding of candidate precise neoepitopes of Ccdc85c^MUT to K^d are shown. […] The affinities of the MS/TRS predicted neoepitopes were also measured for D^d and L^d; measured affinities were below the level of detection.
The mutation is heterozygous and the un-mutated as well as the mutated reads are detected in the transcripts. […] All mice were challenged with the Meth A cells, and tumor rejection was monitored (Fig. 1b upper panel). […]
Area under the curve (AUC) is used as a tool to measure tumor growth. Briefly, AUC was calculated by selecting “Curves & Regression” and then “Area under curve” from the “analyze” tool, using the Prism 5.0 (GraphPad). […]

A further test concerns splenic CD8 T cells. The experiment in a line: ELIspot for interferon γ of splenic CD8 T cells from immunized mice. The test is classed as cell-based, BALB/c mice. The settings on record: spleens seven days after second immunization; in vitro stimulation with immunizing 18-mer, 10 µM. The text has this:
BALB/c mice were immunized with 18-mer peptides containing Ccdc85c^MUT as well as Ccdc85c^WT as described in Methods. Spleens were harvested seven days after the second immunization and splenic CD8 T cells tested by ELIspot for interferon γ production in response to stimulation in vitro with the peptides used for immunization. […] Since the CD8 response detected in vitro was so modest, CD8 response as detected in vivo in the tumor microenvironment became our focus.
Supplementary Fig. 3. CD8 response to Ccdc85cMUT and Ccdc85cWT peptides. BALB/c mice were immunized twice at a weekly interval with 18-mer peptides containing Ccdc85cWT (left) or Ccdc85cMUT (right) as described in Methods. Spleens were harvested seven days after the second immunization and CD8 T cells stimulated in vitro with the peptides (10 µM concentration) used for immunization, as indicated. CD8 cells were analyzed for release of interferon g. Each dot represents a single mouse. The P values were calculated using two tailed t-test. Data are presented as mean values +/- SD. […]

The subject of test [2] is Meth A. The conditions noted are these: anti-CD8 antibody during the priming phase; control antibody without effect; as previously described; cited from earlier work. The text has this: The mutation is heterozygous and the un-mutated as well as the mutated reads are detected in the transcripts. BALB/cJ bone marrow derived dendritic cells (BMDCs) pulsed with an 18-mer peptide with the mutant amino acid near the center ([…]) or un-mutated peptide ([…]), were used to immunize BALB/cJ mice. All mice were challenged with the Meth A cells, and tumor rejection was monitored (Fig. 1b upper panel).

On to “DPSSTYIRPFETKVKLLD [18-mer peptide with the mutant amino acid near the center]”, for which, in the test on Meth A [1] (BALB/cJ mice immunized twice, CTLA4 blockade), the “tumor rejection (in words)” value is given as “potent tumor rejection or control in all mice”. Moreover, the “Tumor rejection score (TRS)” value in the test on Meth A [1] (BALB/cJ mice, BMDCs pulsed with 40 µg peptide, two immunizations one week apart, CTLA4 blockade (9D9), scale 0 (no rejection) to 5 (100% of mice)) is reported as 5.0. Further, the “CD8 response (interferon γ ELIspot)” value in the test on splenic CD8 T cells is given as “very modest but statistically significant CD8 response”. Also, in the test on Meth A [2], the “effect of CD8 depletion on anti-tumor activity” value was “abrogated”.
